Data as given in patent US20110207789A1, “METHODS RELATED TO CASEIN KINASE II (CK2) INHIBITORS AND THE USE OF PURINOSOME-DISRUPTING CK2 INHIBITORS FOR ANTI-CANCER THERAPY AGENTS” (priority 2010, published 2011).
Where two headings read alike, the source gives them in different places. Numbered stars: 1 amine (or outer) side, 2 acyl side, 3 side chain; on linkers, the order of the positions; unused ones are H or OH. Bridge positions count the residues as written; N and C are the ends. Square brackets hold non-standard residues; d marks the D form. Peptide text beside a SMILES is read from it. Trp(2-yl) = O=C([C@H](Cc1c([*:3])[nH]c2ccccc12)N[*:1])[*:2]; Leu(4R-OH,5-OH) = C[C@](O)(CO)C[C@H](N)C(=O)O; cisHyp = O=C(O)[C@@H]1C[C@H](O)CN1

Tests used:
Assay type in all cases: cell-based
HeLa cells [1] = assay: Label-free Epic RWG biosensor DMR assay in HeLa cells cultured in regular serum medium; settings: for Type of DMR signal triggered by the compound alone: HeLa cells, regular serum medium, high confluency; for EC50: Homo sapiens, synchronized HeLa cells, 25,000 cells per well; for Classification as purinosome promoting or disrupting CK2 inhibitor: from DMR signals in HeLa cells; for Effect on purinosome complexes in quiescent cells: high seeding density; for Effect on purinosome complexes in proliferating cells: low seeding density; for Effect of pretreatment on the TBB DMR response / Effect of pretreatment on the DMAT DMR response: pretreatment about 1 hr, modulators 10 μM; for Effect of pretreatment on the TBB DMR response: then TBB 50 μM; for Effect of pretreatment on the TBB DMR response / Sensitivity of the DMR signal to cellular status / Effect of pretreatment on the sequential TBB response after DMAT / Effect of pretreatment on the sequential DMAT response after TBB: DMAT 25 μM; for Sensitivity of the DMR signal to cellular status: three seeding densities (5,000, 10,000, 20,000 cells per well), TBB 100 μM; for Effect of pretreatment on the DMAT DMR response: then DMAT 25 μM; for Effect of pretreatment on the DMAT DMR response / Effect of pretreatment on the sequential TBB response after DMAT / Effect of pretreatment on the sequential DMAT response after TBB: TBB 50 μM; for Effect of pretreatment on the sequential TBB response after DMAT / Effect of pretreatment on the sequential DMAT response after TBB: order modulator (10 μM), each step about 1 hr
Source text: HeLa cells were obtained from American Type Cell Culture (Manassas, Va.). This cervical cancer cell line was maintained in standard serum medium (i.e., minimum essential medium (MEM) (Invitrogen) supplemented with 10% fetal bovine serum (FBS) and 1% Penicillin/streptomycin). To investigate the effects of purine depletion on the purinosome formation and dissociation, HeLa cells were maintained for at least two passages in “purine-depleted medium” prior cell assays. […] FBS was dialyzed against 0.9% NaCl at 4° C. for ˜2 days using a 25 kDa MWCO dialysis membrane to remove purines. This process completely removes the purines normally present in FBS.
Cells were typically grown using ˜1 to 2×10^4 cells per well at passage 3 to 15 suspended in 50 μl of the corresponding culture medium in the biosensor microplate, and were cultured at 37° C. under air/5% CO2 for ˜1 day. The confluency for all cells at the time of assays was ˜100%.
Epic® wavelength interrogation system (Corning Inc., Corning, N.Y.) was used for whole cell sensing. This system consists of a temperature-control unit, an optical detection unit, and an on-board liquid handling unit with robotics. The detection unit is centered on integrated fiber optics, and enables kinetic measures of cellular responses with a time interval of ˜15sec. The compound solutions were introduced by using the on-board liquid handling unit (i.e., pippetting).
(§1) For biosensor cellular assays, compound solutions were made by diluting the stored concentrated solutions with the HBSS (1× Hanks balanced salt solution, plus 20 mM Hepes, pH 7.1), and transferred into a 384 well polypropylene compound storage plate to prepare a compound source plate. Two compound source plates were made separately when a two-step assay was performed. In parallel, the cells were washed twice with the HBSS and maintained in 30 μl of the HBSS to prepare a cell assay plate. Both the cell assay plate and the compound source plate(s) were then incubated in the hotel of the reader system. After incubation the baseline wavelengths of all biosensors in the cell assay microplate were recorded and normalized to zero. Afterwards, a 2 to 10 min continuous recording was carried out to establish a baseline, and to ensure that the cells reached a steady state. Cellular responses were then triggered by transferring 10 μl of the compound solutions into the cell assay plate using the on-board liquid handler.
All studies were carried out at a controlled temperature (28° C.). At least two independent sets of experiments, each with at least three replicates, were performed.

purinosome complexes = assay: Fluorescence imaging of purinosome complexes, transient transfection of fluorescent purine synthesis enzymes; settings: purine depleted medium cultured cells, low confluency (~50%); data not shown
Source text: The inconsistency in the action of TBB between fluorescence imaging and label-free cellular assays can be due to that confocal fluorescence imaging is largely single cell-based, while label-free assay is largely population cells-based, as well as different confluencies used in both assays.

HeLa cells [2] = assay: Label-free Epic DMR assay in HeLa cells cultured in purine depleted medium; settings: TBB 100 μM, DMAT 25 μM
Source text: HeLa cells were obtained from American Type Cell Culture (Manassas, Va.). This cervical cancer cell line was maintained in standard serum medium (i.e., minimum essential medium (MEM) (Invitrogen) supplemented with 10% fetal bovine serum (FBS) and 1% Penicillin/streptomycin). To investigate the effects of purine depletion on the purinosome formation and dissociation, HeLa cells were maintained for at least two passages in “purine-depleted medium” prior cell assays. The purine depleted medium is a medium consisting of Roswell Park Memorial Institute 1640 (RPMI 1640) supplemented with dialyzed 5% FBS […]. FBS was dialyzed against 0.9% NaCl at 4° C. for ˜2 days using a 25 kDa MWCO dialysis membrane to remove purines. This process completely removes the purines normally present in FBS. […]
For biosensor cellular assays, compound solutions were made by diluting the stored concentrated solutions with the HBSS (1× Hanks balanced salt solution, plus 20 mM Hepes, pH 7.1), and transferred into a 384 well polypropylene compound storage plate to prepare a compound source plate. […] Both the cell assay plate and the compound source plate(s) were then incubated in the hotel of the reader system. After incubation the baseline wavelengths of all biosensors in the cell assay microplate were recorded and normalized to zero. […]

HT29 cells = assay: TBB-mediated DMR signal in HT29 cells; settings: 10 μM TBB, highly confluent cells
Experimental: as §1, with “All other cell lines were obtained from American Type Cell Culture (Manassas, VA) and were cultured under corresponding standard culture conditions, according to the protocol recommended by the supplier. Cells were typically grown using ˜1 to 2×10^4 cells per well at passage 3 to 15 suspended in 50 μl of the corresponding culture medium in the biosensor microplate, and were cultured at 37° C. under air/5% CO2 for ˜1 day. The confluency for all cells at the time of assays was ˜100%. For” for “For”, “Cellular responses were then triggered by transferring 10 μl of the compound solutions into the cell assay plate using the on-board liquid handler.” left out

Row | SMILES | Type of DMR signal triggered by the compound alone (HeLa cells [1]) | Classification as purinosome promoting or disrupting CK2 inhibitor (HeLa cells [1]) | Effect of pretreatment on the TBB DMR response (HeLa cells [1]) | Effect of pretreatment on the DMAT DMR response (HeLa cells [1]) | Effect of pretreatment on the sequential TBB response after DMAT (HeLa cells [1]) | further results
1 | CN(C)c1nc2c(Br)c(Br)c(Br)c(Br)c2[nH]1 [DMAT, 2-Dimethylamino-4,5,6,7-tetrabromo-1H-benzimidazole] | P-DMR | purinosome promoting CK2 inhibitors | N-DMR similar to the buffer treated cells | – | – | EC50 (HeLa cells [1]; dependent on the time points after stimulation (6 min and 50 min), read-out: EC50 of dose-dependent P-DMR response): 5 to 22 µM; Effect on purinosome complexes in quiescent cells (HeLa cells [1]): promotes the further formation of purinosome complexes; Effect on purinosome complexes in proliferating cells (HeLa cells [1]): promote the formation of purinosomes; Sensitivity of the DMR signal to cellular status (HeLa cells [1]): insensitive to cellular status; Effect on purinosome complexes by fluorescence imaging (purinosome complexes): formation of purinosome complexes; Type of DMR signal in purine depleted culture (HeLa cells [2]): P-DMR
2 | OC[C@H]1O[C@@H](n2cnc3cc(Cl)c(Cl)cc32)[C@H](O)[C@@H]1O [DRB, 5,6-Dichlorobenzimidazole 1-(β-D-ribofuranoside] | DMR signals similar to the DMAT response | purinosome promoting CK2 inhibitors | slightly potentiated | desensitized | – | –
3 | Brc1c(Br)c(Br)c2[nH]nnc2c1Br [TBB, 4,5,6,7-tetrabromobenzotriazole] | N-DMR | pruinosome disrupting CK2 inhibitors | – | slightly potentiated | – | EC50 (HeLa cells [1]; 50 min, amplitude 50 min after stimulation, read-out: EC50 of dose-dependent N-DMR signal): 25 µM; Effect on purinosome complexes in quiescent cells (HeLa cells [1]): causes the disassembly of basal purinosome complexes; Effect on purinosome complexes in proliferating cells (HeLa cells [1]): promote the formation of purinosomes; Sensitivity of the DMR signal to cellular status (HeLa cells [1]): dramatically sensitive to cellular status; Effect on purinosome complexes by fluorescence imaging (purinosome complexes): disassembly of purinsome complexes; Type of DMR signal in purine depleted culture (HeLa cells [2]): P-DMR; TBB DMR signal in HT29 cells (HT29 cells): an initial P-DMR followed by a N-DMR
4 | O=C(O)/C=C/c1cc(Br)c(Br)c(Br)c1Br [TBCA, Tetrabromocinnamic Acid] | DMR signals similar to the DMAT response | purinosome promoting CK2 inhibitors | slightly potentiated | desensitized | – | –
5 | O=c1cc(-c2ccc(O)cc2)oc2cc(O)cc(O)c12 [apigenin] | DMR signals similar to the DMAT response | purinosome promoting CK2 inhibitors | – | – | – | –
6 | Clc1cccc(Cl)c1N=C1NCCN1 [clonidine] | – | – | dose-dependently potentiated | – | – | –
7 | C/C1=C/C(=O)O[C@@H]2C[C@@H](CC[C@H](C)/C=C\C=C\CC1)O[C@@](O)([C@@H]1CSC(=O)N1)C2 [latrunculin A] | – | – | completely inhibiting the early DMR event | attenuated | altered | Effect of pretreatment on the sequential DMAT response after TBB (HeLa cells [1]): smaller DMAT response
8 | COC(=O)Nc1nc2ccc(C(=O)c3cccs3)cc2[nH]1 [nocodazole] | – | – | reversed | potentiated | slightly suppressed | Effect of pretreatment on the sequential DMAT response after TBB (HeLa cells [1]): suppression
9 | Cc1cc(C(C)(C)C)c(O)c(C)c1CC1=NCCN1 [oxymetazoline] | Gi-like DMR signal | – | – | attenuated | potentiation | –
10 | C[C@@H]1NC(=O)[C@H](C[C@@](C)(O)CO)NC(=O)[C@@H]2Cc3c([nH]c4ccccc34)SC[C@H](NC(=O)[C@@H]([C@H](C)O)NC1=O)C(=O)N1C[C@@H](O)C[C@H]1C(=O)N[C@@H](C)C(=O)N2 [phalloidin] (cyclo(A[dT]C[cisHyp]A[Trp(2-yl)][Leu(4R-OH,5-OH)]); thioether 3-6) | – | – | little impact | little impact | – | –
11 | CC(C)(C)NCC(O)c1cc(O)cc(O)c1 (stereo not drawn) [terbutaline] | Gs-like DMR signal | – | – | little or no impact | little or no impact | –
12 | CC[C@]1(O)C[C@@H]2CN(CCc3c([nH]c4ccccc34)[C@@](C(=O)OC)(c3cc4c(cc3OC)N(C)[C@H]3[C@@](O)(C(=O)OC)[C@H](OC(C)=O)[C@]5(CC)C=CCN6CC[C@]43[C@@H]65)C2)C1 [vinblastine] | – | – | reversed | – | – | Effect of pretreatment on the sequential DMAT response after TBB (HeLa cells [1]): suppression
